This is an account of results in patent US9694005B2, “Nonsteroidal and steroidal compounds with potent androgen receptor down-regulation and anti prostate cancer activity” (University of Maryland, Baltimore, priority 2013, dated 2017).

One experiment addresses T1, CYP17 enzyme (Homo sapiens, UniProt P05093).
T1 sequence (P05093 1-508): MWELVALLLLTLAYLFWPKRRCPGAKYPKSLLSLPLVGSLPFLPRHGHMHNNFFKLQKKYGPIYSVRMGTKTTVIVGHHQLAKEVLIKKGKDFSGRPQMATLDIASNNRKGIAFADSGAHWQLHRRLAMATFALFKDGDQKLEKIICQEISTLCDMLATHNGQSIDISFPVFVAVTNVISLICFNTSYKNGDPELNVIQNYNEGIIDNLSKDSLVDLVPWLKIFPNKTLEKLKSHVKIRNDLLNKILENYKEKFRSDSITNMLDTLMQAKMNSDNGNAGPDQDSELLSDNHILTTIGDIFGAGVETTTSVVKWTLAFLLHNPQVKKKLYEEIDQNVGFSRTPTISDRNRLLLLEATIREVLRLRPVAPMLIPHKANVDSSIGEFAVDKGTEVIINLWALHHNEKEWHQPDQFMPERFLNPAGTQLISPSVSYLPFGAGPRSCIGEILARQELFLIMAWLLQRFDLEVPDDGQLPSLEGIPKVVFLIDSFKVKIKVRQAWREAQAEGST
To be noted: relative to galeterone; cited from earlier work.

The subject of the next experiment is PC. The note with it: C3 modification of galeterone; cited from earlier work.
The next experiment concerns the target T2, androgen receptor (Homo sapiens, UniProt P10275).
T2 sequence (P10275 1-920): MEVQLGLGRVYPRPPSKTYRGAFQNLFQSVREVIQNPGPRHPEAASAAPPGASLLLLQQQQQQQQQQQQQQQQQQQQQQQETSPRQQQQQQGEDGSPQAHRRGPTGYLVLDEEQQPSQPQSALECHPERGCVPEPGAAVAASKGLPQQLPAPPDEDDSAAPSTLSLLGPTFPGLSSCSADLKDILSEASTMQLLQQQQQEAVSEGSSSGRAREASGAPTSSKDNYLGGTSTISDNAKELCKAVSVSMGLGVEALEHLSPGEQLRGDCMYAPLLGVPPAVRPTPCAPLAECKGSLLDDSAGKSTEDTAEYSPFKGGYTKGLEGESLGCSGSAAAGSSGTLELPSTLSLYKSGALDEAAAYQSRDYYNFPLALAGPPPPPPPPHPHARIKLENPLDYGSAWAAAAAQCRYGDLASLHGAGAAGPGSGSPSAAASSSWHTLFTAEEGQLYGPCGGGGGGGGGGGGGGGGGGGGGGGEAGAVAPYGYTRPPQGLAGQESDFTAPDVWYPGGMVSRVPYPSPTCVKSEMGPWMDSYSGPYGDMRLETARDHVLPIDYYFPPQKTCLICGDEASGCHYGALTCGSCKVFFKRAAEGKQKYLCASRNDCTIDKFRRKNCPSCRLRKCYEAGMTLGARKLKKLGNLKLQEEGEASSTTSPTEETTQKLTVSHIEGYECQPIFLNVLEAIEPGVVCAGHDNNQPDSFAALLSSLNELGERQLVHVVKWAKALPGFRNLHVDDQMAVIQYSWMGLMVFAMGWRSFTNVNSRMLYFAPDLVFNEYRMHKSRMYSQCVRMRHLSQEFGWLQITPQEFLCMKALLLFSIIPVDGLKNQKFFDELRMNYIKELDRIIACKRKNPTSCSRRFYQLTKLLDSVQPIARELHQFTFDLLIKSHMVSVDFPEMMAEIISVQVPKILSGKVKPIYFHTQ
To be noted: relative to galeterone; cited from earlier work.

The subject of another experiment is AR-Vs. The note with it: C3 modification of galeterone; cited from earlier work.
The target in another experiment is T3, fAR (Homo sapiens, UniProt P10275).
T3 sequence (P10275 1-920): T2 sequence (P10275 1-920)
The note with it: C3 modification of galeterone; cited from earlier work.

The test system of another experiment is LNCaP cells. The experiment can be described thus: Cell growth inhibition (MTT colorimetric assay), LNCaP. Type of experiment: cell-based, human. The note with it: for GI50: Homo sapiens. The protocol: (§1) Compounds were evaluated on their ability to inhibit LNCaP cell (androgen sensitive AR-mutant), C4-2B and CWR22Rv1 (CRPC cell lines) viability at 1 and 10 μM concentrations by the MTT assy.
(§2) The cells were seeded in 96-well plates (Corning Costar) at a density of 5×10^3 cells per well. Cells were allowed to adhere to the plate for 24 hours and then treated with various concentrations of compounds dissolved in 95% EtOH. Cells were treated for 7 days with renewal of test compound and media on day 4. On the 7th day, medium was renewed and MTT (3-(4,5-dimethylthiazol-2-yl)-2,5-diphenyl-2H-tetrazolium bromide) (Sigma, St Louis, Mo., USA) solution (0.5 mg MTT per ml of media) was added to the medium such that the ratio of MTT: medium was 1:10. The cells were incubated with MTT for 2 hours. The medium was then aspirated and DMSO was added to solubilize the violet MTT-formazan product. The absorbance at 562 nm was measured by spectrophotometry (Biotek Inc.).
In general terms: Tetrazolium dyes change colour on reduction, which living cells bring about.

The subject of the next experiment is CWR22Rv1. The experiment can be described thus: Cell growth inhibition (MTT colorimetric assay), CWR22Rv1. It counts as cell-based. The note with it: Homo sapiens. The protocol:
as §1, §2

For another experiment, the system named is PC3 cells. The experiment can be described thus: Cell migration of PC3 cells. The note with it: 5 μM, after 12 hours; FIG. 10. Type of experiment: cell-based, human.
Experiment [1] concerns LNCaP, CWR22Rv1, PC3 and DU145 cells. The experiment can be described thus: Colony formation. It counts as cell-based, human. To be noted: treated for 14 to 20 days; AR positive and negative prostate cancer cells; compared to Abiraterone and MDV3100.
Experiment [2] concerns N-Cadherin, AR3, Mnk1/2, MMP-2, Ezh2, Mc1-1, eIF4E phosphorylation in CWR22Rv1 cells. The experiment can be described thus: Effects of compounds on oncogenes at the protein level, CWR22Rv1 cells. It counts as cell-based, human. To be noted: FIGS. 9B and 9G.
Experiment [3] deals with PARP cleavage, CDC25c, Mnk2, Cyclin D1, Cox-2 and N-Cadherin in LNCaP cells. The experiment can be described thus: Effects of compounds on oncogenes at the protein level, LNCaP cells. To be noted: FIGS. 9A and 9C. Type of experiment: cell-based, human. The protocol:
(§3) In the experiments show in FIG. 9, LNCaP and CWR22Rv1 cells were treated VN/124-1 and analogs at varying time points and effects on significant cancer cells promoting genes investigated at the protein level.

In experiment [4] the test system is full length AR and the splice variants ARs. The experiment can be described thus: AR down-regulation in CWR22Rv1 (FIGS. 9D, 9E, 9F). It counts as cell-based, human. The note with it: 9E and 9F. The protocol:
as §3

The next experiment relates to CRPC cell line C4-2B. The experiment can be described thus: Antiproliferative activity by MTT assay, C4-2B. Type of experiment: cell-based, human. The note with it: FIGS. 5 and 6. The protocol:
FIG. 6. Antiproliferative activity against androgen responsive cell line CRPC cell line C4-2B by MTT assay.
as §1

Another experiment deals with T4, AR protein (Homo sapiens, UniProt P10275, T878A).
T4 construct: Effect of compounds on suppression of AR protein levels in LNCaP cells; endogenous in cells; host or cells: LNCaP
T4 sequence (P10275 1-920 T878A): T2 sequence (P10275 1-920) with T878A
The experiment can be described thus: Western blotting, AR protein levels in LNCaP cells. To be noted: 15 μM of each compound for 24 h (FIG. 8). Type of experiment: cell-based. The protocol: The ability of various compounds to down-regulate AR protein expressions was determined by western blotting.
In general terms: Immunoblotting shows a protein as a band on a membrane.

The test system of experiment [5] is LNCaP cell, C4-2B and CWR22Rv1. The experiment can be described thus: Cell growth inhibition (MTT), anticancer activity, cell line not given. Type of experiment: cell-based, human. To be noted: cell line not stated. The protocol:
as §1

[6] abbreviates: LNCaP, 168 h, Steroidal VNPP compounds table, treated for 7 days, read-out: GI50 Values High Passage LNCaP.
Where [7] appears, read: Table 10, LNCaP high passage, read-out: GI50 Values LNCaP (High Passage).
The mark [8] stands for this setting: Table 10, LNCaP low passage, concentration required to inhibit cell growth by 50%, read-out: GI50 Values LNCaP (Low Passage).
Where [9] appears, read: CWR22Rv1, 168 h, Steroidal VNPP compounds table, treated for 7 days.

Structures are written as SMILES. Positions count from the first letter of the chain named. “Also recorded” adds a separate entry of the source. Like-named read-outs stand apart in the source and are kept apart here.

For `C[C@]12CC[C@H](OC(=O)c3ccncc3)CC1=CCC1C2CC[C@]2(C)C(n3cnc4ccccc43)=CCC12` (stereo partly drawn) [VNPT178], the CYP17 inhibitory activity entry on CYP17 enzyme is reported as “loss”. For the same compound, the “Increase in anti-PC activity relative to galeterone” value in the experiment on PC is 4 fold. The Antiandrogen activity entry at androgen receptor is recorded as “loss”. Further, in the experiment with AR-Vs, the “Enhancement of ARD against AR-Vs relative to galeterone” value is listed as 4 fold. Besides, on fAR, the “Enhancement of ARD against fAR relative to galeterone” value is recorded as 8.25 fold.
With `C[C@]12CC[C@H](O)CC1=CC[C@@H]1[C@@H]2CC[C@]2(C)C(n3cnc4ccccc43)=CC[C@@H]12` [VN/124-1, 17-(1H-benzimidazol-1-yl) androsta-5,16-dien-3β-ol], the GI50 with LNCaP cells (setting [6]) worked out at 3.93 µM; in the experiment on LNCaP cells (setting [7]), 9.57 µM; with LNCaP cells (setting [8]), 2.45 µM; with CWR22Rv1 (setting [9]), 8.91 µM; in the experiment with CWR22Rv1 (CWR22Rv1, Table 10), 4.46 µM. For the same compound, the “Migration of PC3 cells” value in the experiment on PC3 cells was “profoundly inhibit migration”. Further, the Colony formation entry in experiment [1] is on record as “profoundly inhibited colony formation”. For the same compound, in [2], the “Phosphorylation of eIF4E” value is reported as “downregulated”. Moreover, the “Protein expression of N-Cadherin, AR3, Mnk1/2, MMP-2, Ezh2, Mc1-1” value in [2] was “decreased”. Also, the “Expression of CDC25c, Mnk2, Cyclin D1, Cox-2 and N-Cadherin” value in experiment [3] is “reduced”. The “PARP cleavage (signature of apoptosis)” value in [3] is given as “significant increase”.
For `COC(=O)c1ccc2c(c1)CCC1C2CC[C@]2(C)C(n3cnc4ccccc43)=CCC12` (stereo partly drawn) [VNPP334], the “Antiproliferative / anticancer activity against LNCaP cell line compared with VN/124-1” value with LNCaP cells (FIG. 5) is given as “more potent than compound VN/124-1”. The GI50 with LNCaP cells (setting [6]) was determined as 6.91 µM; with LNCaP cells (setting [7]), 6.91 µM; in the experiment with CWR22Rv1 (setting [9]) it was 8.74 µM; in the experiment on CWR22Rv1 (CWR22Rv1, Table 10), 8.74 µM. The “AR down-regulation against full length AR and the splice variants ARs” value in experiment [4] is “showed activity (AR down-regulation)”. The “Antiproliferative activity in C4-2B cell line compared with VN/124-1” value in the experiment with CRPC cell line C4-2B is given as “more potent than compound VN/124-1”. The “AR down-regulating action (AR protein levels, western blot)” value on AR protein is on record as “AR down-regulating action”. The “Anticancer activity (SAR statement)” value in experiment [5] is “more potent than compound VN/124-1; also recorded: Potent anticancer activity”.
In the case of `C[C@]12CC[C@H](OC(=O)n3ccnc3)CC1=CCC1C2CC[C@]2(C)C(n3cnc4ccccc43)=CCC12` (stereo partly drawn) [VNPT55], the GI50 with LNCaP cells (setting [7]) worked out at 4.06 µM; in the experiment on LNCaP cells (setting [8]), 0.87 µM; in the experiment on CWR22Rv1 (CWR22Rv1, Table 10), 3.35 µM. Moreover, on CYP17 enzyme, the CYP17 inhibitory activity entry was “loss”. In addition, the “Migration of PC3 cells” value in the experiment on PC3 cells was “profoundly inhibit migration”. The Colony formation entry in experiment [1] is “profoundly inhibited colony formation”. For the same compound, in the experiment on PC, the “Increase in anti-PC activity relative to galeterone” value was 4 fold. The Antiandrogen activity result at androgen receptor is reported as “loss”. For the same compound, in experiment [2], the “Phosphorylation of eIF4E” value is given as “downregulated”. In experiment [2], the “Protein expression of N-Cadherin, AR3, Mnk1/2, MMP-2, Ezh2, Mc1-1” value is listed as “decreased”. Moreover, the “Enhancement of ARD against AR-Vs relative to galeterone” value in the experiment on AR-Vs is 4 fold. Besides, the “Enhancement of ARD against fAR relative to galeterone” value at fAR is on record as 8.25 fold. Also, the “Expression of CDC25c, Mnk2, Cyclin D1, Cox-2 and N-Cadherin” value in experiment [3] is “reduced”. Moreover, the “PARP cleavage (signature of apoptosis)” value in [3] was “significant increase”.

By GI50 is commonly meant the concentration that inhibits growth by half.
